Read-outs that look alike come from different tables or passages of the source.
What was measured:
[1] = molecular target: T1, In Vitro Assembled Tau filaments (full length tau 4R2N, T40 isoform) (Homo sapiens, UniProt P10636); assay: Displacement binding assay with in vitro assembled tau filaments; conditions: 0.4 uM tau filaments
T1 construct: full length tau monomer (4R2N, T40 isoform)
Procedure: In Vitro assembled tau filaments were prepared similarly to Barghorn et al, Methods Mol Biol. 2005, 299, 35-51.
Briefly, Twenty micromolar (uM) of full length tau monomer (4R2N, T40 isoform), was incubated at 37 degrees shaking for 14 days with 50 uM heparin, 2 mM DTT, and 0.04% sodium azide in 100 mM Sodium Acetate (NaOAC) buffer pH7.0. All concentrations listed are final concentrations. Samples of the mixture were taken at 0, 10, and 14 days, and filament formation was examined using Thioflavin T binding compared to a control sample of filaments.
For the displacement binding assay, compound dilutions (1000×) were added into the 96-well plate (150 nL per well). 100% (1 uM self-block (unlabeled Compound—Example 1 or Example 4 dependent on the ^3H-labeled input compound—Example 6 or 7, respectively)) and 0% (DMSO) controls were included in each assay plate. In Vitro Assembled Tau filaments diluted in assay buffer (PBS+0.1% BSA) were added at a final concentration of 0.4 uM per well. Subsequently, either ^3H compound of Example 7 or ^3H compound of Example 6 was added to each well at a final concentration of 8 nM. Incubation was carried out at room temperature (25° C.) for 90 minutes, and then the assay samples were filtered onto GF/B filter plates that had been blocked at least 1 hour with 50 uL 0.2% PEI using a PerkinElmer Filtermate 96-well plate harvester, washing 6 times with ice cold buffer (5 mM Tris, pH 7.4). Plates were dried in a vacuum oven at 37° C. for 1 hour, then plates were sealed on the back, and 50 ul of Microscint-20 was added to each well. The tops of the plates were sealed, and then plates were read in a PerkinElmer TopCount. Data analysis was performed using internally developed software (Assay Data Analyzer).

amyloid plaques = assay: In vitro autoradiography, human AD brain cortex slice (amyloid plaques, 6E10 stain on adjacent slice); type: binding; conditions: adjacent slice 6E10 positive
Procedure: (§1) To assess presence of amyloid plaques and NFTs in the tested human brain samples, the adjacent human AD brain slices were used for autoradiography (ARG) and immunohistochemistry (IHC) studies. ARG was done using isotopically labeled compounds which bind selectively to amyloid plaques or NFTs. IHC was performed with antibodies for amyloid-beta (Aβ) (6E10 (Covance)) and phosphorylated tau (p-tau) (PHF6 (Covance)). Tissue homogenate binding was performed using human AD brain homogenates of cerebral cortex. Human brains from donor without neurological disorder were used as control in the same study. […]
(§2) The frozen human brain samples of Alzheimer's disease (AD) and non-AD were purchased from Analytic Biological Services Inc. Frozen brain slices (20 μm thickness) were prepared using a cryostat (Leica CM3050) and kept in sequential order. […] Total binding of radioligand in a brain slices was defined in the absence of competitor, and non-specific binding (NSB) was determined in the presence of competitor (1.0 μM unlabeled self block). […] After one week exposure, the plates were scanned in Fuji BAS 5000 Scanner, and the scanned images were analyzed using MCID 7.0 software. [^3H]-microscales (Amersham Biosciences, GE), were used for quantification of radioligand binding density. FIGS. 3 and 4 have ARG images detected through this method.

NFTs = assay: In vitro autoradiography, human AD brain slice, hippocampus (NFTs, PHF6 stain on adjacent slice); type: binding
Procedure: as §1, §2

[2] = radioligand [3H] Example 7 at 8 nM, read-out: IC50, displacement of [3H] compound of Example 7 from in vitro assembled tau filaments

T1 sequence (P10636 1-441 isoform P10636-8): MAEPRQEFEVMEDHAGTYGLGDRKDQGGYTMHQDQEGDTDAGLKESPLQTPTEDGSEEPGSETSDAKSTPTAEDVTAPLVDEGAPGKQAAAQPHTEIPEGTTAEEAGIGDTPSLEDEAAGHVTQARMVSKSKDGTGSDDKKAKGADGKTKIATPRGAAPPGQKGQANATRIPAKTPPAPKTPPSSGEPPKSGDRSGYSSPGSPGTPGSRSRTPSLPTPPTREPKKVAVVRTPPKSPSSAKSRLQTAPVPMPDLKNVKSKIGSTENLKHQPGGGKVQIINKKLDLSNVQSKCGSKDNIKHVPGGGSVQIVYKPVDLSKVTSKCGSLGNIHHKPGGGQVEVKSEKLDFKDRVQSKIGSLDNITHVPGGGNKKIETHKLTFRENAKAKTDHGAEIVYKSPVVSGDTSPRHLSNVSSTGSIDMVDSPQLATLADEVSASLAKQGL

| IC50 [1, 2] [nM] | SMILES | other results |
| --- | --- | --- |
| 13.6 | COc1ccccc1NC(=O)Nc1ccc(-c2cn(C)c3cnccc23)cc1 [Example 1, 1-(2-methoxyphenyl)-3-(4-(1-methyl-1H-pyrrolo[2,3-c]pyridin-3-yl)phenyl)urea] | IC50 ([1]; radioligand [3H] Example 6 at 8 nM, self-block, read-out: apparent IC50, inhibition of [3H] compound of Example 6 binding to in vitro assembled filaments): 3 nM |
| 25.1 | COc1ccccc1NC(=O)Nc1ccc(-c2cnn3c2CCC3)cc1 [Example 2, 1-(4-(5,6-dihydro-4H-pyrrolo[1,2-b]pyrazol-3-yl)phenyl)-3-(2-methoxyphenyl)urea] | – |
| 33.6 | COc1ccccc1NC(=O)Nc1ccc(-c2cnn(C)c2)cc1 [Example 3, 1-(2-methoxyphenyl)-3-(4-(1-methyl-1H-pyrazol-4-yl)phenyl)urea] | – |
| 20.2 | COc1ccccc1NC(=O)Nc1ccc(-c2cn(C)c3cnccc23)nc1 [Example 4, 1-(2-methoxyphenyl)-3-(6-(1-methyl-1H-pyrrolo[2,3-c]pyridin-3-yl)pyridin-3-yl)urea] | – |
| 92 | Cn1cc(-c2ccc(NC(=O)Nc3ccccc3O)cn2)c2ccncc21 [Example 5, 1-(2-hydroxyphenyl)-3-(6-(1-methyl-1H-pyrrolo[2,3-c]pyridin-3-yl)pyridin-3-yl)urea] | – |
| – | [3H]c1cc(-c2cn(C)c3cnccc23)cc([3H])c1NC(=O)Nc1c([3H])cccc1OC [Example 6, [^3H]-(2-methoxyphenyl)-3-(4-(1-methyl-1H-pyrrolo[2,3-c]pyridin-3-yl)phenyl)urea] | binding to amyloid plaques in cortex region (autoradiography) (amyloid plaques): lack of; autoradiographic binding pattern compared with PHF6 stain of NFTs in hippocampus (NFTs; 5 nM radioligand, human AD brain slice, adjacent slice IHC): consistent with the autoradiographic binding pattern; specificity for Tau over Aβ (ARG evidence) (NFTs; human AD brain slices, FIGS. 3 and 4): measurable specificity |

Source: patent publication US20150336948A1, “Isotopically Labeled Biaryl Urea Compounds” (Merck Sharp & Dohme Corp., priority 2012, published 2015)
